What all share (assay type): biochemical
In test [1] the target is JAK2 (Homo sapiens (Human), UniProt O60674). Kind of test: JAK Caliper Enzyme Assay at 1 mM ATP, JAK2. In short, it runs like this:
(§1)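 Read-out is Caliper LabChip mobility-shift separation of phosphorylated from unphosphorylated fluorescent peptide after EDTA termination. Each JAK kinase domain (human, recombinant) runs at 1 mM ATP at room temperature, adjusted for 20–30% turnover. Inhibition is normalized to DMSO and positive-control wells and plotted against concentration.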

Test [2] addresses JAK1 (Homo sapiens (Human), UniProt P23458). The experiment in a line: JAK Caliper Enzyme Assay at 1 mM ATP, JAK1. In short, it runs like this:
(§2)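 IC50 (nM) derived from percent conversion of fluorescently labelled peptide, measured by Caliper LabChip mobility-shift separation after EDTA stop. Each JAK family kinase domain (human, recombinant) run at 1 mM ATP and room temperature, conditions set to 20-30% product; DMSO wells define uninhibited baseline.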

The target of test [3] is JAK3 (Homo sapiens (Human), UniProt P52333). Kind of test: JAK Caliper Enzyme Assay at 1 mM ATP, JAK3. In short, it runs like this:
as §2

Test [4] has as its target TYK2 (Homo sapiens (Human), UniProt P29597). The experiment in a line: JAK Caliper Enzyme Assay at 1 mM ATP, TYK2. In outline:
as §1

The structures appear in SMILES notation.

One may read the IC50 as the point on the concentration scale where inhibition reaches its midpoint.

Sequence of JAK1 (P23458 875-1153): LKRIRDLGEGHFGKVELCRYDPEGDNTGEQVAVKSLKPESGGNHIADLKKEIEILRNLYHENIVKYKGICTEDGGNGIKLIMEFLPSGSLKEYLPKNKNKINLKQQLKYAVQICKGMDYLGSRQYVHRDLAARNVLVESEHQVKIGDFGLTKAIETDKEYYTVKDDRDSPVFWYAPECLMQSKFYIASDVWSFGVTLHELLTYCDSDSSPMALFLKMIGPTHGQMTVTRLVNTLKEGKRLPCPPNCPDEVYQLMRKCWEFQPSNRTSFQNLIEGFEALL
Sequence of TYK2 (P29597 897-1176): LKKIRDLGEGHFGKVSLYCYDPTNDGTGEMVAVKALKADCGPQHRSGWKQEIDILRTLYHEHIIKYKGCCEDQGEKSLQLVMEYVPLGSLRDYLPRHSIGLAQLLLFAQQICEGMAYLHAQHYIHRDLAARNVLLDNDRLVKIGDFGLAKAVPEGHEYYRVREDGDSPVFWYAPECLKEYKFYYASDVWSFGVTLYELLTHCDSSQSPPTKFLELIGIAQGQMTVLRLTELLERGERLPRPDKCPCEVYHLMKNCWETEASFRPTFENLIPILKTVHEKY
Sequence of JAK2 (O60674 849-1124): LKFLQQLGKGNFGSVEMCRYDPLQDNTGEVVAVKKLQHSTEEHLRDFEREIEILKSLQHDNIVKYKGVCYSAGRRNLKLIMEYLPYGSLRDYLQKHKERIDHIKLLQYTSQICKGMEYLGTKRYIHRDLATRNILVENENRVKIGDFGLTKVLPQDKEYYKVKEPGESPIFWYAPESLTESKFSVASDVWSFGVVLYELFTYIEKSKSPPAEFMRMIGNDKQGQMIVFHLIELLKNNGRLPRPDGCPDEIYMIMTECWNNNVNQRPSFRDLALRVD
Sequence of JAK3 (P52333 822-1111): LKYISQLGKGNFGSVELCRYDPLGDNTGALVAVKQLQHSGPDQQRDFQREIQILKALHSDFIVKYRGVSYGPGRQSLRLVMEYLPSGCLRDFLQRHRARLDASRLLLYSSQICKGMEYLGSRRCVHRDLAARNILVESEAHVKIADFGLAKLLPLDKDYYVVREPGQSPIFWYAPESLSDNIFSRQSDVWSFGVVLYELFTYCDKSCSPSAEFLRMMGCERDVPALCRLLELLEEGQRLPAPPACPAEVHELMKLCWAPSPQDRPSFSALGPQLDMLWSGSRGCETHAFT

For the compound `N#CCC1(n2ccc(-c3nc(Oc4cccc(N)n4)cc4ncccc34)n2)CC(C#N)C1` (stereo not drawn) [Example 266, trans-3-(3-{7-[(6-aminopyridin-2-yl)oxy]-1,6-naphthyridin-5-yl}-1H-pyrazol-1-yl)-3-(cyanomethyl)cyclobutanecarbonitrile], the IC50 in test [1] is 3320 nM; in test [2] it was above 10000 nM; in test [3], above 10000 nM; in test [4] it was 1910 nM.

Consider `Cc1cc(-c2nc(-c3ccn[nH]3)cc3ncccc23)nn1C1(CC#N)CN(S(C)(=O)=O)C1` [Example 267, [3-{5-methyl-3-[7-(1H-pyrazol-5-yl)-1,6-naphthyridin-5-yl]-1H-pyrazol-1-yl}-1-(methylsulfonyl)azetidin-3-yl]acetonitrile], for which the IC50 in test [1] is 843 nM; in test [2] it was 2950 nM; in test [3], above 10000 nM; in test [4] it was 57 nM.

`Cc1cc(-c2nc(-c3cc[nH]n3)cc3ncccc23)nn1[C@]1(CC#N)C[C@H](C#N)C1` [Example 268, cis-3-(cyanomethyl)-3-{5-methyl-3-[7-(1H-pyrazol-3-yl)-1,6-naphthyridin-5-yl]-1H-pyrazol-1-yl}cyclobutanecarbonitrile]: the half-maximal inhibitory concentration (IC50) in test [1] was found to be 33 nM; in test [2], 81 nM; in test [3], 7780 nM; in test [4] it was 8 nM.

Regarding `Cc1cc(-c2nc(-c3cc[nH]n3)cc3ncccc23)nn1[C@]1(CC#N)C[C@@H](C#N)C1` [Example 269, trans-3-(cyanomethyl)-3-{5-methyl-3-[7-(1H-pyrazol-3-yl)-1,6-naphthyridin-5-yl]-1H-pyrazol-1-yl}cyclobutanecarbonitrile], the IC50 in test [1] was 447 nM; in test [2] it was 1380 nM; in test [3], above 10000 nM; in test [4], 27 nM.

On to `Cc1cc(-c2nc(-c3cc(N)n(C)n3)cc3ncccc23)nn1[C@]1(CC#N)C[C@@H](C#N)C1` [Example 270, trans-3-{3-[7-(5-amino-1-methyl-1H-pyrazol-3-yl)-1,6-naphthyridin-5-yl]-5-methyl-1H-pyrazol-1-yl}-3-(cyanomethyl)cyclobutanecarbonitrile], for which the IC50 in test [1] was 574 nM; in test [2], 6900 nM; in test [3], above 10000 nM; in test [4], 46 nM.

Take `Cc1cc(-c2nc(-c3cc(N)n(C)n3)cc3ncccc23)nn1[C@]1(CC#N)C[C@H](C#N)C1` [Example 271, cis-3-{3-[7-(5-amino-1-methyl-1H-pyrazol-3-yl)-1,6-naphthyridin-5-yl]-5-methyl-1H-pyrazol-1-yl}-3-(cyanomethyl)cyclobutanecarbonitrile]: the IC50 came out at 46 nM in test [1], 429 nM in test [2], 7070 nM in test [3] and 16 nM in test [4].

Turning to `Cc1cc(-c2nc(-c3cn[nH]c3)cc3ncccc23)nn1C1(CC#N)CN(S(C)(=O)=O)C1` [Example 272, [3-{5-methyl-3-[7-(1H-pyrazol-4-yl)-1,6-naphthyridin-5-yl]-1H-pyrazol-1-yl}-1-(methylsulfonyl)azetidin-3-yl]acetonitrile], the IC50 was 1390 nM in test [1], 3790 nM in test [2], above 10000 nM in test [3] and 120 nM in test [4].

Regarding `Cc1cc(-c2nc(-c3cn[nH]c3)cc3ncccc23)nn1[C@]1(CC#N)C[C@@H](C#N)C1` [Example 273, trans-3-(cyanomethyl)-3-{5-methyl-3-[7-(1H-pyrazol-4-yl)-1,6-naphthyridin-5-yl]-1H-pyrazol-1-yl}cyclobutanecarbonitrile], the IC50 in test [1] is 311 nM; in test [2], 786 nM; in test [3], above 10000 nM; in test [4] it was 49 nM.

Take `Cc1cc(-c2nc(-c3cn[nH]c3)cc3ncccc23)nn1[C@]1(CC#N)C[C@H](C#N)C1` [Example 274, cis-3-(cyanomethyl)-3-{5-methyl-3-[7-(1H-pyrazol-4-yl)-1,6-naphthyridin-5-yl]-1H-pyrazol-1-yl}cyclobutanecarbonitrile]: the 50% inhibitory concentration (IC50) in test [1] came to 34 nM; in test [2], 60 nM; in test [3] it was 3360 nM; in test [4] it was 9 nM.

These data come from patent publication US11254668B2, “Pyrazolo[1,5-A]pyrazin-4-yl and related derivatives” (Pfizer Inc., priority 2017, dated 2022).
